Calls of active or inactive are those of the source. The calls are words filed in the database; no cut-off is given here.
Experiments:
[1] = Clearance in Sprague-Dawley rat at 10 mg/kg, po administered as single dose by LC-PDA-MS/MS analysis; type: ADME, organism-based; settings: in vivo
Mus musculus [2] = experiment: Hypoglycemic activity in C57BL/6 DIO mouse model assessed as fasting glucose levels at 30 mg/kg administered via gavage twice daily for 28 days measured on day 29 by OGTT; type: functional, organism-based; settings: tested as the 2H-labelled form
[3] = Half life in Sprague-Dawley rat at 10 mg/kg, po administered as single dose by LC-PDA-MS/MS analysis; type: ADME, organism-based; settings: in vivo
Mus musculus [4] = experiment: Hypoglycemic activity in C57BL/6 DIO mouse model assessed as decrease in blood glucose AUC (0 to 120 mins) at 30 mg/kg administered via gavage twice daily for 28 days measured on day 29 by OGTT; type: functional, organism-based; settings: tested as the 2H-labelled form
[5] = Cmax in Sprague-Dawley rat at 10 mg/kg, po administered as single dose by LC-PDA-MS/MS analysis; type: ADME, organism-based; set-up: dose 10 mg/kg, route oral; settings: in vivo
Mus musculus [6] = experiment: Hypoglycemic activity in C57BL/6 DIO mouse model assessed as decrease in blood glucose AUC (0 to 120 mins) at 30 mg/kg administered via gavage twice daily for 28 days measured before glucose challenge by OGTT; type: functional, organism-based; settings: tested as the 2H-labelled form
[7] = AUC (0 to 24 hrs) in Sprague-Dawley rat at 10 mg/kg, po administered as single dose by LC-PDA-MS/MS analysis; type: ADME, organism-based; set-up: time < 24 hr, dose 10 mg/kg, route oral; settings: in vivo
[8] = Plasma clearance in rat; type: ADME, organism-based
Mus musculus [9] = experiment: Toxicity in C57BL/6 DIO mouse model at 30 mg/kg administered via gavage twice daily for 28 days; type: organism-based; settings: in vivo, po, 672 h
[10] = biological target: T1, Free fatty acid receptor 4 (Homo sapiens, UniProt Q5NUL3); experiment: Agonist activity at human FFAR4 expressed in CHO cells assessed as beta-arrestin recruitment after 90 mins by luminescence assay; type: functional, cell-based
T1 sequence (Q5NUL3 whole entry): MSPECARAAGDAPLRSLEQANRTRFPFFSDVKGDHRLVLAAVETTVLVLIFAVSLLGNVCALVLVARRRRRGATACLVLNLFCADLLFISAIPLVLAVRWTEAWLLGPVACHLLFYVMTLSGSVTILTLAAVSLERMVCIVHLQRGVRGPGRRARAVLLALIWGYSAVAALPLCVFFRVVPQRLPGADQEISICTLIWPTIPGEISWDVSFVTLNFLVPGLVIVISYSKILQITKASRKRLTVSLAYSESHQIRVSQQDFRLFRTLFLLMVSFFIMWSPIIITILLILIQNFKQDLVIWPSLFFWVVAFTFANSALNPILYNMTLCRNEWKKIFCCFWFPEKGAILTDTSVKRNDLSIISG

Compound	CL/F [1] [mL/min/kg]	Activity (Mus musculus [2])	half-life [3] [h]	Activity (Mus musculus [4])	Cmax [5] [ng/mL]	Activity (Mus musculus [6])	AUC(0-t) at 24 h [7] [ng·h/mL]	clearance [8] [mL/min/kg]	Activity (Mus musculus [9])	EC50 [10] [µM]
Cc1ccc(-c2ccc(F)cc2COc2ccc(CCC(=O)O)cc2)cc1	61.2	Active	0.79	Active	969	inactive	1370	61.2		
[2H]C([2H])(Cc1ccc(OCc2cc(F)ccc2-c2ccc(C)cc2)cc1)C(=O)O	16.2		1.66		2040		6280		Non-Toxic	
Cc1cc(OCCCS(C)(=O)=O)cc(C)c1-c1cccc(COc2ccc3c(c2)OC[C@H]3CC(=O)O)c1										> 10
